Patent US20100099640A1, “TISSUE DEGENERATION PROTECTION” (priority 2007, published 2010)

Experiments:
3T3-L1 adipocytes = experiment: Triglyceride (Oil red O) accumulation during differentiation of 3T3-L1 adipocytes; assay type: cell-based, mouse; conditions: for triglyceride accumulation in adipocytes: 50-micromolar (lowest concentration), added during the 7-days differentiation process; for lipid deposition (triglyceride accumulation) in adipocytes: 200-micromolar (4x higher concentration), added during differentiation, steviol dissolved with DMSO
Experimental: 3T3-L1 mouse preadipocytes were purchased from the American Type Culture Collection (ATCC). They are cultivated in DHG medium (Dulbecco's modified Eagle's medium+High Glucose 4.5 g/l, GibcoBRL) supplemented with 10% FCS (foetal calf serum, GibcoBRL) and incubated a 37 C+5% CO2 incubator in a humidified atmosphere. For pre-adipocyte differentiation, 3T3-L1 cells were seeded at 50% confluence 3 days before the beginning of the differentiation programme. Confluent cell monolayers (day 0) are switched for 48 h to media containing the adipogenic cocktail: “DHG-L1” medium (DHG that contains 1.5 g/l NaHCO3) supplemented with 10% FCS, 5 μg/ml insulin, 300 μM dibutyryl-cyclicAMP (dbcAMP) and 1 μM dexamethasone. The cells were then refeeded every other day with DHG-L1 containing 10% FCS and 5 μg/ml insulin. At the end, 80-90% of cells were differentiated. […]
To characterize the state of (de)differentiation obtained in the presence of the molecules of interest, triglycerides present in the cells were stained with Oil red O (a dye of the neutral lipids). The absorbance of cell monolayers at 490 nm was measured in a spectrophotometer.

[1] = tested on: everted gastrointestinal sacs of rats and Caco-2 cell layers; conditions: free steviol formed in the colon; cited from earlier work
[2] = tested on: atherosclerotic plaques of DKO mice; experiment: Atherosclerosis: morphometric and immunohistochemical analysis of aortic root cross sections of DKO mice; assay type: in vivo, mouse; conditions: 12 weeks
Experimental: Homozygous LDL-receptor-knockout mice (LDLR^(−/−)), heterozygous ob/+, and C57BL6 mice were purchased from Jackson Laboratory, Bar Harbor, Me. LDLR^(−/−) mice were backcrossed into a C57BL6 background to the 10th generation. To obtain DKO mice with combined leptin deficiency (ob/ob) and LDL-receptor deficiency, LDLR^(−/−) and ob/+ mice were crossed. All offspring were genotyped by polymerase chain reaction (PCR) techniques. All mice were housed at 22° C. on a fixed 12/12-hour light/dark cycle. Experimental procedures in animals were performed in accordance with protocols approved by the Institutional Animal Care and Research Advisory Committee. All mice were fed standard chow containing 4% fat (Pavan Service). Food intake was ≈5.7 g/d. Mice (about 50 g) were treated with stevioside (N=14; 10 mg/kg), steviol (N=9; 5 mg/kg) or placebo (N=17) for 12 weeks between 12 and 24 weeks of age. Stevioside (Molecular weight: 804) was dissolved in water (1 mg/ml) and 500 μl of the solution was administered orally. Steviol (Molecular weight: 318) was dissolved in water containing 6% NaHCO3 (1 mg/ml) and 250 μl of the solution was administered orally.
The extent of atherosclerosis was determined by analysis of cross sections from the aortic root. Approximately ten 7-μm frozen sections per staining per animal were used for morphometric and immunohistochemical analysis. Total plaque areas were measured on hematoxylin and eosin stained sections. Lipids were stained with oil-red O, and macrophage areas were stained with an antibody against mouse Mac-3 antigen (Pharmingen), and oxidized LDL with the monoclonal antibody 4E6. Blinded analysis of positive immunostained sections was performed with the Quantimet600 image analyzer (Leica).

[3] = tested on: mouse pancreatic islets, β-cell line INS-1; conditions: direct action on β-cells; cited from earlier work
[4] = cited from earlier work
[5] = steviol 5 mg/kg vs stevioside 10 mg/kg orally
[6] = stevioside 10 mg/kg or steviol 5 mg/kg orally

With C=C1C[C@@]23CC[C@H]4[C@@](C)(CCC[C@@]4(C)C(=O)OC4OC(C(=O)O)C(O)C(O)C4O)[C@@H]2CC[C@]1(O)C3 (stereo partly drawn) [steviol glucuronide, steviol-19-O-β-D-glucuronide] the “triglyceride accumulation in adipocytes” value (3T3-L1 adipocytes) was “inhibited significantly”.

In the case of C=C1C[C@@]23CC[C@H]4[C@@](C)(CCC[C@@]4(C)C(=O)O)[C@@H]2CC[C@]1(O)C3 [steviol, Kaur-16-en-18-oic acid, 13-hydroxy-, (4α)-], the “triglyceride accumulation in adipocytes” value (3T3-L1 adipocytes) is listed as “did not significantly reduce”, the “lipid deposition (triglyceride accumulation) in adipocytes” value (3T3-L1 adipocytes) is listed as “did not have an effect” and the “absorption of free steviol” value [1] is listed as “easily absorbed”. The “SMC content of plaques, compared to stevioside” value [2, 5] was “increased somewhat more”, the “plaque lipids, compared to stevioside” value [2, 5] was “decreased somewhat more” and the “lipid deposition in plaques” value [2, 6] was “reducing”. The “macrophage deposition in plaques” value [2, 6] was “reducing”, the “oxLDL deposition in plaques” value [2, 6] was “reducing” and the plaque volume [2, 6] was “lowered”. The “smooth muscle cell (SMC)-to-macrophage ratio (proxy for plaque stability)” value [2, 6] was “increased”, the insulin secretion [3] was “stimulation of insulin secretion” and the “transformation by human microsomes relative to rat microsomes” value ([4]; human vs rat liver microsomes) was “about 4 times lower”. For the same compound, the “transformation of steviol by human microsomes” value ([4]; in vitro incubation with human liver microsomes) was “very low”.

With “Kaur-16-en-18-oic acid, 13-[(O-b-D-glucopyranosyl-(1→2)-O-[b-D-glucopyranosyl-(1→3)]-b-D-glucopyranosyl)oxy]-, b-D-glucopyranosyl ester, (4a)- [rebaudioside]” the “triglyceride accumulation in adipocytes” value (3T3-L1 adipocytes) was “did not significantly reduce” and the “lipid deposition (triglyceride accumulation) in adipocytes” value (3T3-L1 adipocytes) was “inhibited”.
